According to US11541050B2, “Pyrimidine derivatives for the treatment of viral infections” (JANSSEN SCIENCES IRELAND UC, priority 2011, dated 2023):

Assays:
[1] = biological target: T1, human TLR8 (wild type sequence) (Homo sapiens, UniProt Q9NR97); test: TLR8 cellular NFκB-luc reporter assay, wild type TLR8; assay type: cell-based; parameters: unit not given here; details: lowest effective concentration; for TLR 8 wt LEC: wild type TLR8 (compounds 74 onward)
T1 construct: expressed in transfected cells; host or cells: HEK293
T1 sequence (Q9NR97 27-1041): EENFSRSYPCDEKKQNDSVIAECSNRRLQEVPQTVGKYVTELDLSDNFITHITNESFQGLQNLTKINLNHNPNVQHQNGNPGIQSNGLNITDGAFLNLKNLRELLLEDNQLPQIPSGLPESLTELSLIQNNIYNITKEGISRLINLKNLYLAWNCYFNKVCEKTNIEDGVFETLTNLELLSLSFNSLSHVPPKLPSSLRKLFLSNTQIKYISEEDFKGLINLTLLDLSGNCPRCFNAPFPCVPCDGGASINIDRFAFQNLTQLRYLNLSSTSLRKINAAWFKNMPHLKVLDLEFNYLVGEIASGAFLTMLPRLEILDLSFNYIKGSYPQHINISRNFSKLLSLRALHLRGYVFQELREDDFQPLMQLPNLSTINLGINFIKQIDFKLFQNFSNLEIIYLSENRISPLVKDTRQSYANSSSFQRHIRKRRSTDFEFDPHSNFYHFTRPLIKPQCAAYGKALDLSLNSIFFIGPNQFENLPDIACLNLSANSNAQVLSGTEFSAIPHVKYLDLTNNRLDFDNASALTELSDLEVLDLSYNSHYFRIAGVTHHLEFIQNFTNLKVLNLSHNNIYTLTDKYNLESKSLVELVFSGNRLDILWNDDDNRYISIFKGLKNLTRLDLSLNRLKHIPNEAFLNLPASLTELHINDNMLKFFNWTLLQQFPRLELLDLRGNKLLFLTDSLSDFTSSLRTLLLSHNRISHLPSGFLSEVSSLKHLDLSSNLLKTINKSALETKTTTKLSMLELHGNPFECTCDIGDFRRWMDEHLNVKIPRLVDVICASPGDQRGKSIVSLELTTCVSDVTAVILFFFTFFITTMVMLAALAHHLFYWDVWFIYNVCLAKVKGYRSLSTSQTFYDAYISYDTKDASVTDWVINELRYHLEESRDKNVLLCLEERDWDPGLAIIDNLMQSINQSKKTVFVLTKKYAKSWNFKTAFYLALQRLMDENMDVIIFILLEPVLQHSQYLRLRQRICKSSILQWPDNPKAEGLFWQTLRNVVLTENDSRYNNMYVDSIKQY
Experimental: (§1) The ability of compounds to activate human TLR7 and/or TLR8 was assessed in a cellular reporter assay using HEK293 cells transiently transfected with a TLR7 or TLR8 expression vector and NFκB-luc reporter construct. In one instance the TLR expression construct expresses the respective wild type sequence or a mutant sequence comprising a deletion in the second leucine-rich repeat of the TLR.
(§2) Briefly, HEK293 cells were grown in culture medium (DMEM supplemented with 10% FCS and 2 mM Glutamine). For transfection of cells in 10 cm dishes, cells were detached with Trypsin-EDTA, transfected with a mix of CMV-TLR7 or TLR8 plasmid (750 ng), NFκB-luc plasmid (375 ng) and a transfection reagent and incubated for 48 hours at 37° C. in a humidified 5% CO2 atmosphere. Transfected cells were then detached with Trypsin-EDTA, washed in PBS and resuspended in medium to a density of 1.67×10^5 cells/mL. Thirty microliters of cells were then dispensed into each well in 384-well plates, where 10 μL of compound in 4% DMSO was already present. Following 6 hours incubation at 37° C., 5% CO2, the luciferase activity was determined by adding 15 μl of Steady Lite Plus substrate (Perkin Elmer) to each well and readout performed on a ViewLux ultraHTS microplate imager (Perkin Elmer). Dose response curves were generated from measurements performed in quadruplicates. Lowest effective concentrations (LEC) values, defined as the concentration that induces an effect which is at least two fold above the standard deviation of the assay, were determined for each compound.

[2] = biological target: T2, human TLR7 (wild type sequence) (Homo sapiens, UniProt Q9NYK1); test: TLR7 cellular NFκB-luc reporter assay, wild type TLR7; assay type: cell-based; parameters: unit not given here; details: lowest effective concentration; for TLR 7 wt LEC: wild type TLR7 (compounds 74 onward)
T2 construct: expressed in transfected cells; host or cells: HEK293
T2 sequence (Q9NYK1 27-1049): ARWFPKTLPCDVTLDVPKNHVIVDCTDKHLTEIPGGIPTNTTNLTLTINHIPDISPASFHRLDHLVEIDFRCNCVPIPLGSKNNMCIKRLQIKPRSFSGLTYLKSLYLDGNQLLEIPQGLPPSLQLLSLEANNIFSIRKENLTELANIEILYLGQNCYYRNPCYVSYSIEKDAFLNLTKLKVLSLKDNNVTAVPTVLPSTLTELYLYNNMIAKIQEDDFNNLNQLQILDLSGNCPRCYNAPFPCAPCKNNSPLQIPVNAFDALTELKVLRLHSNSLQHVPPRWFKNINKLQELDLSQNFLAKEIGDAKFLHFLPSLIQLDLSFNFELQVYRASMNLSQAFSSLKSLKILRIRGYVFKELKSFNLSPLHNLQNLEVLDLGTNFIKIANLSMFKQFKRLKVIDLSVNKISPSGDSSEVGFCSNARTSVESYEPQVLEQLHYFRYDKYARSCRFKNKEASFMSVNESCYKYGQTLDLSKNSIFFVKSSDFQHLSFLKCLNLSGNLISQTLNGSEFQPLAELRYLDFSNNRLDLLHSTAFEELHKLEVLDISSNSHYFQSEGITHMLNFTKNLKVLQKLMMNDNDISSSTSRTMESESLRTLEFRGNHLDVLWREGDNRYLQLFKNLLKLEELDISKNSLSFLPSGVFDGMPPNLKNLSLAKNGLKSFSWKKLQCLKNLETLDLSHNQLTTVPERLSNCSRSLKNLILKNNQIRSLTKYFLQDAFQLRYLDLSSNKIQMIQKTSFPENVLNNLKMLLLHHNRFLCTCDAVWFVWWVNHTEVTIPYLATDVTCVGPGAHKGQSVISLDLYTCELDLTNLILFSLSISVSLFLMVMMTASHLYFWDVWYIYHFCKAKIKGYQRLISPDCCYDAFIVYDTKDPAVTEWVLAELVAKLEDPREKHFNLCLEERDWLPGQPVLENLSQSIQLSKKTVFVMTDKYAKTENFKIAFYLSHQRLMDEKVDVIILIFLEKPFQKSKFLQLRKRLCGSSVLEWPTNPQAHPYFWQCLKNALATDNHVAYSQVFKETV
Experimental: as §1, §2

[3] = wild type TLR8 (compounds 1-73)
[4] = wild type TLR7 (compounds 1-73)

SMILES	TLR8-wt_LEC [1, 3]	TLR 7 wt LEC [2]	TLR 8 wt LEC [1]	other results
CCCC[C@@H](CCO)Nc1nc(N)ncc1OC [Compound 54]	1.40			
CCCC[C@H](CCO)Nc1nc(N)ncc1OC [Compound 229]				TLR7-wt_LEC ([2]; wild type TLR7): >25
CCCCNc1nc(N)ncc1OCc1ccc2ccccc2n1 [Compound 41]	0.83			
CCC[C@@H](CO)Nc1nc(N)ncc1OC [Compound 55]	0.16			
CCCCNc1nc(N)ncc1OCCCc1ccccc1 [Compound 19]	7.94			TLR7-wt_LEC [2, 4]: 1.53
CCCC[C@@H](CO)Nc1nc(N)ncc1OC [Compound 59]	0.36			
CCCCNc1nc(N)ncc1OCc1ccc2ccccc2n1 [Compound 157]		0.333	1.110	
COc1cnc(N)nc1NCCC1CC1 [Compound 91]		>25	20.850	
CCC(C)[C@H](CCO)Nc1nc(N)ncc1OC (stereo partly drawn) [Compound 275]				TLR7-wt_LEC ([2]; wild type TLR7): 10.380
CCCC(C)Nc1nc(N)ncc1OC (stereo not drawn) [Compound 65]	3.68			TLR7-wt_LEC [2, 4]: 21.59
COc1cnc(N)nc1NCCCC(F)(F)F [Compound 66]	9.03			
COc1cnc(N)nc1N[C@H](CCO)CC(C)C [Compound 261]				TLR7-wt_LEC ([2]; wild type TLR7): 10.790
CCCCNc1nc(N)ncc1OCCC [Compound 5]	4.53			TLR7-wt_LEC [2, 4]: 6.18
CCCC[C@H](CO)Nc1nc(N)ncc1OC [Compound 73]	0.80			
CCCCNc1nc(N)ncc1OCc1cnccn1 [Compound 199]				TLR7-wt_LEC ([2]; wild type TLR7): 0.512; TLR8-wt_LEC [1]: 0.218
C=CCNc1nc(N)ncc1OC [Compound 90]		>25	8.460	
CCC[C@@H](CCO)Nc1nc(N)ncc1OC [Compound 57]	1.80			
COc1cnc(N)nc1N[C@H](CO)CC(C)C [Compound 93]		>25	15.880	
CCCCNc1nc(N)ncc1OC(C)C [Compound 233]				TLR7-wt_LEC ([2]; wild type TLR7): 10.070
CC[C@H](C)[C@@H](CO)Nc1nc(N)ncc1OC [Compound 68]	0.56			
CCCCNc1nc(N)ncc1OCCCc1ccccc1C(F)(F)F [Compound 162]		11.850	>25	
CCCC(CO)Nc1nc(N)ncc1OC (stereo not drawn) [Compound 62]	0.55			TLR7-wt_LEC [2, 4]: 21.26
CCCCNc1nc(N)ncc1OCc1cc2ccccn2n1 [Compound 224]				TLR7-wt_LEC ([2]; wild type TLR7): 0.206
CCC[C@H](CO)Nc1nc(N)ncc1OC [Compound 72]	6.57			
CCCCNc1nc(N)ncc1OCc1nc2ccccc2s1 [Compound 222]				TLR7-wt_LEC ([2]; wild type TLR7): 0.277
CCCCNc1nc(N)ncc1OCc1nc2ccccc2[nH]1 [Compound 193]		0.032	0.654	

Second part, led by results:

TLR8-wt_LEC [1, 3]	TLR 7 wt LEC [2]	TLR 8 wt LEC [1]	SMILES	other results
	0.135	0.524	CCCCNc1nc(N)ncc1OCc1nccc(OC)c1OC [Compound 180]	
1.15			CCCCNc1nc(N)ncc1OCc1nccc(OC)c1OC [Compound 42]	
	0.286	0.743	CCCCNc1nc(N)ncc1OCc1csc(C)n1 [Compound 191]	
1.75			CCCCNc1nc(N)ncc1OCc1cc(C)nn1C [Compound 48]	
	0.008	0.143	CCCCNc1nc(N)ncc1OCc1nccc2ccccc12 [Compound 123]	
	0.519	0.827	CCCCNc1nc(N)ncc1OCc1cccnn1 [Compound 78]	
	0.810	0.410	CCCCNc1nc(N)ncc1OCc1nc(C)oc1C [Compound 178]	
2.42			CCCCNc1nc(N)ncc1OCc1ccccc1 [Compound 1]	TLR7-wt_LEC [2, 4]: 0.90
	0.014	0.178	CCCCNc1nc(N)ncc1OCc1nn(C)c2ccccc12 [Compound 182]	
1.68			CCCCNc1nc(N)ncc1OCc1c(C)noc1C [Compound 36]	
